Several values for one entry are separate records, joined by “and”; a condition that tells them apart may be missing. Identical values can stand only once.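 Five concentrations, 48 hours, 96-well plates. Here, GI50 denotes the concentration required for 50% inhibition of growth. The concentration for full growth arrest is given as TGI.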
Test system: MDA-MB-468 breast
Experiment: NCI tumour cell line growth inhibition, 48 h

Row | Compound | GI50 | TGI
1 | CCCCCc1c(C)[nH]c(/C=C2\N=C(c3ccc[nH]3)C=C2OCc2ccccc2)c1C | 0.0969 µM and 0.0235 µM | 0.764 µM and 0.268 µM
2 | CC1(C)[C@@H](OC(N)=O)C=C[C@]2(C=O)[C@H]3CC[C@]4(C)[C@@H](c5ccc(=O)oc5)[C@@H](Cl)C[C@]4(O)C3=CC[C@@H]12 | 0.00613 µM | 0.0161 µM
3 | CN1CCN(CCOc2ccc(-c3cnc4c(-c5ccc(F)cc5)cnn4c3)cc2)CC1 | 1.54 µM | 3.19 µM
4 | COc1ccc(-c2c(N)n[nH]c2-c2cc(OC)c(OC)c(OC)c2)cc1 | 0.0946 µM | 2.87 µM
5 | COc1cc([C@@H]2c3cc4c(cc3C(OC3O[C@@H]5COC(C)O[C@H]5[C@H](O)[C@H]3O)C3COC(=O)[C@@H]32)OCO4)cc(OC)c1O (stereo not given in full) | 1.1 µM | 4.5 µM
6 | c1ccc2nc(OCCN3CC3)ccc2c1 | 2.77 µM | 7.87 µM
7 | CN(C)CCCOc1c2ccc(Cl)cc2nc2c1oc1ccc(Cl)cc12 | 2.12 µM | 7.03 µM
8 | CCCCOc1ccc(/C=N/Nc2cc(C)nc3ccc(Cl)cc23)cc1 | 1.53 µM | 2.97 µM
9 | CC(C)(C)Nc1nc2c(OCCc3ccccc3)cccn2c1-c1cccc(F)c1 | 3.51 µM | 22.9 µM
10 | Oc1c(CN2CCOCC2)cc(COCc2ccccc2)c2cccnc12 | 2.39 µM | 7.19 µM
11 | Oc1ccc(Cl)cc1-c1cc(-c2ccc(F)cc2)n[nH]1 | 1.35 µM | 5.35 µM
12 | O=C(O)C(=O)CBr | > 48.3 µM and 16.9 µM | > 72.4 µM and 33.3 µM
13 | C#Cc1cc2c(N)c(C(=O)c3cc(OC)c(OC)c(OC)c3)[nH]c2cc1OC | 0.497 µM | 43.2 µM
14 | CC(=O)C1(O)Cc2c(O)c3c(c(O)c2C(OC2CC(N)C(O)C(C)O2)C1)C(=O)c1ccccc1C3=O (stereo not given) | 0.0119 µM | 0.0398 µM
15 | CCOC(=O)c1ccccc1-c1c2ccc(=[N+](C)C)cc-2oc2cc(N(C)C)ccc12 | 0.0469 µM | 0.41 µM
16 | COc1cc(-c2nn(-c3ccc(NC(=O)c4cc(Cl)cc(Cl)c4)cc3)cc2-c2ccncc2)ccc1Cl | > 100 µM | > 100 µM
17 | COc1ccc2[nH]c(O)c(/C=c3/cc4c(c(-c5ccc(F)cc5)n3)=Nc3ccccc3-4)c2c1 | 2.22 µM | 5.47 µM
18 | CCCCCCNC(=O)Oc1ccc(/C(=C(\C)c2ccccc2)c2ccc(OCCN(CC)CC)cc2)cc1 | 2.92 µM | 9.72 µM
19 | COc1cccc(-c2cc(=O)c3cc(Cl)cnc3[nH]2)c1 | 0.886 µM | > 100 µM

Row | Compound | GI50 | TGI
20 | CN(C)CCNc1nc2ccccc2c2c(=O)c3ccccc3sc12 | 1.45 µM | 3.31 µM
21 | CCCn1c(N)c(C(=O)CNc2ccc(I)cc2)c(=O)[nH]c1=O | – | > 100 µM
22 | Cn1ncc(-c2ccc3c(=O)[nH]nc(CN)c3c2)c1-c1c(F)cc2ccccc2c1C#N | 7.02 µM | 21.1 µM
23 | O=C(CCl)Nc1cc(O)c2c(c1)C(=O)c1cccc(O)c1C2=O | 1.04 µM | 2.86 µM
24 | O=C(Nc1ccc(I)cc1F)c1cc(I)ccc1O | 0.808 µM | 2.46 µM
25 | ClCC#CCSc1ncnc2c1ncn2CC#CCCl | 1.43 µM | 3.2 µM
26 | CC[C@H](NC(=O)[C@H](CS(=O)(=O)CC1CC1)N[C@@H](c1ccc(F)cc1)C(F)(F)F)C(=O)C(=O)NC1CC1 | 49.9 µM | > 100 µM
27 | O=[As]c1ccc(C(=O)c2ccc(Oc3ccccc3)cc2)cc1 (stereo not given) | 0.0266 µM | 0.101 µM
28 | Nc1c(C(=O)Nc2cccc(Br)c2)sc2nc3c(cc12)C(O)CCC3 (stereo not given) | 0.237 µM | 31.7 µM
29 | O=[N+]([O-])c1cc(F)c2cccnc2c1O | 14.7 µM | 47.2 µM
30 | Cc1c(C(=O)O[C@H]2[C@@H]3[C@H](C)CC[C@H]3[C@]3(C)O[C@@]2(C2CCCCC2)C[C@H]3OC(=O)CO)ccc2ccccc12 | 8.12 µM | 16.1 µM
31 | OC(COc1cccc2ccccc12)CN1CCN(c2ccccc2Cl)CC1 (stereo not given) | 15.3 µM | 30.1 µM
32 | C=CCCC(=O)N1C=CC(=O)[C@H](O)[C@@H]1/C=C/c1ccccc1 | 5.12 µM | 22.3 µM
33 | CC(=O)N1CCN(CCOc2ccc(C3CCN(C4=Nn5c(nnc5C(F)(F)F)CC4)CC3)cc2)CC1 | 3.72 µM | 61.1 µM
34 | CCOc1cc(C(C)(C)C)ccc1C1=N[C@@](C)(c2ccc(Cl)cc2)[C@@](C)(c2ccc(Cl)cc2)N1C(=O)N1CCN(CCS(C)(=O)=O)CC1 | 2.1 µM | 6.34 µM
35 | COc1cccc(C2=C(c3cn(C)c4cccc(OC)c34)C(=O)NC2=O)c1 | 6.88 µM | > 25 µM
36 | CC(C)(C)C(=O)OCc1nc2cc3c(cc2c(=O)[nH]1)CCC3=O | > 100 µM | > 100 µM
37 | COC(=O)[C@]12CC[C@@H](C)[C@H](C)[C@@H]1C1=CC[C@@H]3[C@@]4(C)CC(=O)[C@H](OC(=O)c5ccco5)[C@@]5(C)COC(=C45)C[C@@]3(C)[C@]1(C)CC2 | 0.42 µM | > 100 µM
38 | CO[C@H](C(=O)O)[C@@H]1Cc2cc3cc(OC4CC(OC5CC(O)C(O)C(C)O5)C(O)C(C)O4)c(C)c(O)c3c(O)c2C(=O)[C@H]1OC1CC(OC2CC(OC3CC(C)(O)C(O)C(C)O3)C(O)C(C)O2)C(O)C(C)O1 (stereo not given in full) | 0.159 µM | 0.885 µM
